Assay: Solubility of acidic dye and by-product in solvents, rated by filter cake weight
Format: physicochemical
Conditions: 10 g solvent, filtered 0.2 μm, dried filter cake weighed
Experimental: The acidic dye was C. I. Acid Blue 290. The acidic dye was added to 10 g of each organic solvent and the organic solvent was agitated, whereby the acidic dye was dissolved in the organic solvent. A solution thereby obtained was filtered through an Omnipore membrane filter, having a pore size of 0.2 μm, available from Nihon Millipore K.K. A filter cake thereby obtained was dried and then weighed. A by-product represented by the following formula was measured for solubility in the same manner as that used to measure the acidic dye:
The solubility of the acidic dye and by-product in each organic solvent was evaluated on the basis of the weight of the filter cakes. Evaluation standards were as described below.
A rating of 5: 0 to less than 0.2 g of a filter cake
A rating of 4: 0.2 to less than 0.4 g of a filter cake
A rating of 3: 0.4 to less than 0.6 g of a filter cake
A rating of 2: 0.6 to less than 0.8 g of a filter cake
A rating of 1: 0.8 g or more of a filter cake

For C. I. Acid Blue 290 [Acidic dye], the Solubility rating (Acetone) was 1 (A rating of 1: 0.8 g or more of a filter cake), the Solubility rating (Acrylonitrile) was 3 (A rating of 3: 0.4 to less than 0.6 g of a filter cake) and the Solubility rating (Chloroform) was 4 (A rating of 4: 0.2 to less than 0.4 g of a filter cake). For the same substance, the Solubility rating (Ethanol) was 3 (A rating of 3: 0.4 to less than 0.6 g of a filter cake), the Solubility rating (Hexane) was 2 (A rating of 2: 0.6 to less than 0.8 g of a filter cake) and the Solubility rating (Methanol) was 5 (A rating of 5: 0 to less than 0.2 g of a filter cake). For the same substance, the Solubility rating (Tetrahydrofuran) was 4 (A rating of 4: 0.2 to less than 0.4 g of a filter cake) and the Solubility rating (Water) was 1 (A rating of 1: 0.8 g or more of a filter cake).

Reference: patent US20110092624A1, “INK COMPOSITION AND METHOD FOR PRODUCING THE SAME” (SEIKO EPSON CORPORATION, priority 2009, published 2011)
